Source: BigSolDB 2.1

OC[C@H]1O[C@@H](c2ccc(Cl)c(Cc3ccc(O[C@H]4CCOC4)cc3)c2)[C@H](O)[C@@H](O)[C@@H]1O
solubility (mole fraction)
Conditions | in DMF | in acetonitrile | in ethanol | in ethyl acetate | in ethylene glycol | in formamide | in methanol | in n-butanol | in n-propanol
278.15 K | 0.00117 | 6.19e-07 | 2.33e-06 | 7.16e-07 | 1.16e-05 | 8.05e-05 | 1.77e-05 | 1.81e-06 | 1.59e-06
283.15 K | 0.00124 | 9.85e-07 | 3.77e-06 | 1.07e-06 | 1.48e-05 | 9.2e-05 | 2.48e-05 | 2.73e-06 | 2.43e-06
288.15 K | 0.00129 | 1.46e-06 | 4.84e-06 | 1.42e-06 | 1.91e-05 | 0.000108 | 3e-05 | 4.04e-06 | 3.39e-06
293.15 K | 0.00134 | 1.97e-06 | 6.6e-06 | 1.97e-06 | 2.43e-05 | 0.000122 | 3.65e-05 | 5.9e-06 | 4.54e-06
298.15 K | 0.00142 | 2.62e-06 | 8.45e-06 | 2.56e-06 | 3.41e-05 | 0.000143 | 4.46e-05 | 8.49e-06 | 6.09e-06
303.15 K | 0.00149 | 3.52e-06 | 1.1e-05 | 3.12e-06 | 4.21e-05 | 0.000174 | 5.54e-05 | 1.2e-05 | 7.88e-06
308.15 K | 0.00158 | 4.87e-06 | 1.4e-05 | 4.27e-06 | 5.91e-05 | 0.000202 | 6.9e-05 | 1.62e-05 | 1.04e-05
313.15 K | 0.00165 | 6.15e-06 | 1.85e-05 | 5.56e-06 | 7.01e-05 | 0.000248 | 8.53e-05 | 2.21e-05 | 1.43e-05
318.15 K | 0.00171 | 8.16e-06 | 2.43e-05 | 6.89e-06 | 8.59e-05 | 0.000303 | 0.00011 | 3.02e-05 | 1.99e-05
